Results as given in patent US5840893A, “Compounds for treating infectious diseases” (priority 1996, dated 1998).
Several values for one entry are separate records, joined by “and”; a condition that tells them apart may be missing. Identical values can stand only once. Entries after “also recorded” stand apart in the source; their conditions may differ. Like-named read-outs stand apart in the source and are kept apart here.

How the values were obtained:
[1] = system: nuclear localization; conditions: literature; cited from earlier work
[2] = in vivo; conditions: mouse, plasma
Experimental: (§4) Standard addition curves for each test compound were constructed by adding increased amounts of drug to mouse or human A^+ plasma (Long Island Blood Services; Melville, N.Y.). […] The eluted sample was reduced to dryness in a rotary evaporator and resuspended in 1.0 ml Buffer A.
(§5) Female ND4 Swiss Webster mice (21-24 g) were obtained from Harlan Sprague Dawley (Indianapolis, Ind.) and randomly placed in groups of five in cages with free access to food and water. […] The other CNI compounds were administered intraperitoneally or by oral gavage as a solution in water titrated with sufficient HCl to dissolve the drug. At various time points, ranging from 5 min to 4 days, a single group of animals was euthanized by carbon dioxide inhalation and bled by cardiac puncture using heparin as an anticoagulant. The blood from the five mice in the group was pooled and centrifuged at 14000×g for 10 min. The volume of plasma was measured, and equal volume of Buffer A added, and the mixture extracted and analyzed as described above, except that the dried eluates were resuspended in 200 μl Buffer A and 100 μl was injected onto the high performance liquid chromatography (HPLC) system.
(§6) The area under the plasma concentration-time curve (AUC) was determined, and bioavailability was measured as AUCoral /AUCi.p.. […] The volume of distribution (VD) was calculated as dose/B, and the total clearance rate (Cltot) calculated as β*VD. Cmax and tmax are the maximal plasma concentration and time of this measurement, respectively.

[3] = system: Plasmodium falciparum; assay: Antimalarial activity in vitro, hypoxanthine incorporation, series of clones; format: cell-based
Experimental: (§1) The antimalarial activity of the compounds was determined essentially as described in Desjardins et al. supra. Fifty Al of various concentrations of a compound of the invention, chloroquine, or pyrimethamine were added to the wells of microtiter plates, followed by 200 Al of ring-stage, synchronized, P. falciparum-infected erythrocytes (final hematocrit=1.5%, final parasitemia=1-5%). The plates were incubated for 24 hr in a candle jar kept at 37° C., and then 25 μl of [^3 H]-hypoxanthine (Amersham, Arlington Heights, Ill.; 2.5 μl Ci/well) was added. The plates were then incubated for a further 24 hr, before harvesting onto Unifilter-96 GF/C filter-microplates (Packard; Meriden, Conn.). Twenty-five μl of Microscint scintillation fluid (Packard) was added to each well of the filter-microplate, which was subsequently counted in a Top-count microplate scintillation counter (Packard). The percent of [^3 H] -hypoxanthine uptake relative to control infect-erythrocytes was used to determine the IC50 value for the compounds by non-linear regression for LD50 determination.

[4] = Toxicity study: median lethal dose in mice, i.p.; format: in vivo; conditions: mouse, in vivo, ip
Experimental: (§2) The doses of compounds of the invention found to be lethal to 50% of the mice (LD50) were determined by intraperitoneal injection of groups of five animals with increasing doses of each compound. CNI-0294 was administered from 0, 2, 10, 20, 40, 80, 160, 320, 640, 1280 mg/kg in 0.5 ml of water/HCl; CNI-1594 at 0, 2.4, 5, 10, 20, 40, 80 mg/kg in 0.5 ml of water/HCl; CNI-1794 at 0, 20, 50, 80 mg/kg in 0.5 ml of water/HCl; and CNI-1894 at 0, 10, 20, 40, 80, 240, 480, 960 mg/kg in water/HCl. […] The percentage of animals in each group which died were utilized to calculate the LD50 by non-linear curve fitting with the Enzfit software (Elsevier Bioscience; Cambridge, UK) programmed with the Chou equation (Chou 1976, J Theor Biol 39:253-276)).
(§3) The compounds (FIGS. 4A-E), were screened for toxicity via a modified LD50 assay procedure as described above in an outbred strain of mice.

[5] = system: mice; assay: Toxicity study: median lethal dose in mice, i.p.; format: in vivo
Experimental: as §2, §3

[6] = in vitro; format: in vitro ADME, mouse (ND4 Swiss Webster); conditions: for number of metabolites: mouse liver post-mitochondrial supernatant, NADPH; for metabolised at 1 h: mouse, liver post-mitochondrial supernatant, 60 min incubation, by peak area, read-out: drug altered (metabolic conversion)
Experimental: Several female ND4 Swiss Webster mice were euthanized by carbon dioxide inhalation and the livers excised and rinsed with ice cold phosphate buffered saline (pH 7.4). The livers were minced, gently homogenized in 50 mM phosphate buffer (pH 7.4) with a Dounce homogenizer, and centrifuged at 9600×g for 20 min. The post-mitochondrial supernatant was kept, glycerol added to 20%, and frozen at -70° C. in 1.0 ml aliquots until used. For each incubation, 1.0 ml of a 1.0 mg/ml drug solution was added to 3.0 ml of 50 mM phosphate buffer (pH 7.4), 1.0 ml of 2 mg/ml NADPH in 50 mM phosphate (pH 7.4), and 1.0 ml of the post-mitochondrial supernatant. Five hundred μl of each incubate was then immediately transferred to an ice-cold tube to provide the zero-time sample, and addition 500 μl aliquots removed to ice-cold tubes at 8, 15, 30, and 60 min. The samples were then extracted, and analyzed by HPLC as described in section 7.1. Control incubations were also performed where drug or post-mitochondrial supernatant was omitted. […] Peaks in the CNI compound incubations which increased over time, and were not present in control samples lacking the enzyme preparation were treated as putative metabolites.

[7] = system: Plasmodium falciparum clone FCR-3; assay: Antimalarial activity in vitro, hypoxanthine incorporation, clone FCR-3; format: cell-based
Experimental: as §1

[8] = system: Plasmodium falciparum clone W2mef; assay: Antimalarial activity in vitro, hypoxanthine incorporation, clone W2mef; format: cell-based
Experimental: as §1

[9] = system: Plasmodium berghei; assay: Four day suppression test in Plasmodium berghei infected mice; format: in vivo, Plasmodium berghei NYU-2 in female ND4 Swiss Webster mice
Experimental: FIG. 9. The activity of CNI-0294 against Plasmodium berghei infected mice. Female ND4 Swiss Webster mice were infected with infected erythrocytes and then treated once daily, for four days, with 50 mg/kg CNI-0294, or with distilled water. Six hours after the last dose, thin blood smears were made from each of the animals and the parasitemia was determined. The bars represent the median parasitemia (n=4 for controls and n=5 for treated).
The antimalarial activity of CNI-0294 in vivo was assessed by infecting female ND4 Swiss Webster mice with 100 μl of Plasmodium berghei NYU-2 infected mouse erythrocytes (50% parasitemia) by intraperitoneal injection. The animals were subsequently injected intraperitoneally once per day on days 1-4 of the infection with 0.5 ml water or 0.5 ml of 50 mg/kg CNI-0294 in water. Four hours after the final injection, small blood samples were taken from the tail, and thin smears stained with Dif-Quick (Baxter, Miami, Fla.). The parasitemia of control and treated animals was enumerated by inspection of at least 1000 erythrocytes in each animal.

[10] = for Clearance: Table IV, measured in a 25 gr mouse
Experimental: as §4, §5, §6

[11] = system: Plasmodium falciparum clone D10; assay: Antimalarial activity in vitro, hypoxanthine incorporation, clone D10; format: cell-based
Experimental: as §1

[12] = system: Plasmodium falciparum clone Dd2; assay: Antimalarial activity in vitro, hypoxanthine incorporation, clone Dd2; format: cell-based; conditions: for IC50: Plasmodium falciparum
Experimental: as §1
The Dd2 clone of P. falciparum, which was both chloroquine and pyrimethamine resistant, was utilized to compare the antimalarial activity of the remaining CNI compounds (Table VIII).

[13] = system: Plasmodium falciparum clone HB3; assay: Antimalarial activity in vitro, hypoxanthine incorporation, clone HB3; format: cell-based
Experimental: as §1

[14] = system: HIV-1; assay: Inhibition of HIV-1 replication in cultured macrophages (Table I); format: cell-based; conditions: Human immunodeficiency virus 1, Macrophage; 50% inhibition of viral growth, RT or p24, macrophages
Experimental: A quantitative measurement of the activity of the compounds of the invention to block the replication of HIV-1 in non-dividing cells can be determined by culture of a macrophage-tropic strain of HIV-1 on peripheral blood-derived macrophages. The cells are cultured for 5-6 days prior to infection in a medium consisting of DMEM supplemented with 10% type A/B human serum and 200 U/ml Macrophage Colony Stimulating Factor, with half the medium changed after 3 days, to reach a density of about 10^6 cells per 5 ml well. A macrophage-tropic viral stock may be grown on these cells. The concentration of infectious particles in the stock is estimated by measurement of p24 antigen concentration.
To test the effect of compounds of the invention on HIV- 1 infection in the above-described culture system, the medium is removed and replaced with medium containing HIV-1 at a concentration of 1 ng of p24 (10^4 TCID50 /ml (TCID=tissue culture infectious doses)) and a known concentration of the compound of the invention (the inhibitor). After 24 hours, the cultures are washed to remove non-adherent virus and the culture is re-fed with medium containing the inhibitor at the desired concentration. The amount of replication of HIV-1 is estimated by an assay of the reverse transcriptase activity or by an assay of the concentration of p24 antigen in the culture medium every 2-3 days throughout the post-infection period. In a preferred embodiment the anti-HIV potency of the candidate drug is measured by comparison of the concentration of reverse transcriptase (RT) or of p24 antigen in the medium of the treated and control cultures at the time of the peak of these values in non-treated control cultures, that is about day 5 or 6 post-infection. Repetition at various levels of inhibitor allows for the calculation of the concentration of inhibitor that achieves 50% inhibition of viral growth, IC50. Table I discloses the IC50 of various inhibitors.

[15] = DD2, read-out: IC50 ± standard deviation

## Nc1nc2c(ncn2[C@@H]2O[C@H](COP(=O)(O)OP(=O)(O)OP(O)(O)=S)[C@@H](O)[C@H]2O)c(=O)[nH]1 [(γ-S)GTP]
[1]
  inhibition of nuclear localization: blocked

## CC(=O)c1cc(Nc2cc(C)[n+](C)c(N)n2)cc(C(C)=O)c1.[Cl-] [CNI-0294, 2-amino-4-(3,5-diacetylphenyl)amino-1,6-dimethylpyrimidinium chloride]
[2]; ip, 50 mg/kg
  CL/F: 35.4 mL/min
  Cmax: 18800 ng/mL
  Vd/F: 14.1 L
  k el: 4.17e-05 s⁻¹
[2]; po, 50 mg/kg
  Cmax: 400 ng/mL
[3]
  anti-malarial activity in vitro: considerable anti-malarial activity; also recorded: effective against various clones of P. falciparum
[3]; Plasmodium falciparum, series of cloned parasites, read-out: median inhibitory concentration (IC50)
  IC50: 1.79 to 4 µM
[4]
  LD50: 588 ± 65.8 mg/kg
[5]
  signs and time of toxic reactions / death: no overt signs of toxicity detectable at doses approaching the LD50
  tolerability: very well tolerated; also recorded: well tolerated
[6]
  number of metabolites: three minor and one major metabolite
  metabolised at 1 h: 43.5%
[7]; FCR3, read-out: CNI-0294 IC50
  IC50: 3.09 ± 0.3 µM
[8]; read-out: CNI-0294 IC50
  IC50: 2.29 ± 0.22 µM
[9]; 50 mg/kg i.p. daily for 4 days
  suppression / cure of P. berghei infection: strongly suppress P. berghei infection in mice; also recorded: not completely cured
[9]; 50 mg/kg i.p. once daily for four days, P≤0.01
  reduction of parasitemia: 10 fold
[10]; mouse, in vivo
  relative bioavailability: 6%
[10]; mouse, in vivo, 50 mg/kg
  relative bioavailability: 6%
[10]; mouse, in vivo, ip, 50 mg/kg
  A (zero time intercept, distribution phase): 14.00 and 16.07
  B (zero time intercept, elimination phase): 0.07 and 0.05
  Cltot: 62.70
  VD: 19.80
  duration of therapeutic plasma concentration (range of P. falciparum IC50): approximately one
  plasma maximal concentration: 18.76 to 18.93 µg/mL
  t1/2α: 0.62 and 0.40
  t1/2β: 4.62 and 3.65
  tmax: 5
  α: 1.12 and 1.74
  β: 0.19
[10]; mouse, in vivo, po, 50 mg/kg
  Bioavaliability: 0.06
  time drug was detectable in plasma: at least 6 hr
[11]; D10, read-out: CNI-0294 IC50
  IC50: 4 ± 0.41 µM
[12]; DD2, read-out: CNI-0294 IC50
  IC50: 3.52 ± 0.1 µM
[12]; [15]
  IC50: 3.67 ± 0.57 µM
[13]; HB3, read-out: CNI-0294 IC50
  IC50: 1.79 ± 0.27 µM

## CC(=O)c1cc(Nc2cc(C)nc(N)n2)cc(C(C)=O)c1 [Compound No. 11, 2-amino-4-(3,5-diacetylphenyl)amino-6-methylpyrimidine]
[2]; ip, 50 mg/kg
  CL/F: 16.5 mL/min
  k el: 5.28e-05 s⁻¹
[5]
  LD50 (median lethal dose): > 160 mg/kg
  tolerability: also well tolerated
[14]
  IC50: 0.05 µM
[6]
  number of metabolites: three minor and one major metabolite
  metabolised at 1 h: 65.2%
[10]
  Clearance: 16.50 mL/min
[10]; i.p., 50 mg/kg, water
  A (zero time intercept, distribution phase): 5.22 µg/mL
  B (zero time intercept, elimination phase): 0.14 µg/mL
  t1/2α: 0.38 h
  t1/2β: 3.65 h
  α: 1.83 h⁻¹
[10]; oral 50 mg/kg
  time drug was detectable in plasma: at least 6 hr
[10]; oral vs i.p.
  relative bioavailability: 15%
[10]; oral, 50 mg/kg, water, AUCoral/AUCi.p.
  Bioavaliability: 0.15
[10]; single 50 mg/kg dose, AUCoral against AUCi.p.
  relative bioavailability: 15%
[12]; [15]
  IC50: 20.3 ± 1.62 µM
[12]; clone Dd2
  fold less active than CNI-0294: approximately 5 fold

## CC(=O)c1cccc(Nc2cc(C)nc(N)n2)c1 [Compound No. 15, 4-(3-acetylphenyl)amino-2-amino-6-methylpyrimidine]
[2]; ip, 20 mg/kg
  CL/F: 26.4 mL/min
  k el: 1.11e-05 s⁻¹
[5]
  LD50 (median lethal dose): 49.04 ± 0.08 mg/kg
  tolerability: appreciably more lethal
[5]; listed as CNI-1594
  signs and time of toxic reactions / death: death occurring in minutes and the animals displaying signs of acute neurotoxicity; also recorded: suggested a lethal neurotoxicity
[14]
  IC50: 0.015 µM
[6]
  number of metabolites: three minor and one major metabolite
  metabolised at 1 h: 11.7%
[10]
  Clearance: 26.40 mL/min
[10]; i.p., 20 mg/kg, water
  A (zero time intercept, distribution phase): 1.10 µg/mL
  B (zero time intercept, elimination phase): 0.01 µg/mL
  VD: 39.60 L
  t1/2α: 0.32 h
  t1/2β: 17.33 h
  α: 2.14 h⁻¹
[12]; [15]
  IC50: 23.7 ± 0.59 µM
[12]; clone Dd2
  IC50 relative to CNI-1194 and CNI-4594: equal to that for CNI-1194 or CNI-4594

## CCc1nc(N)nc(N)c1-c1ccc(Cl)cc1 [Pyrimethamine, reference compound]
[7]; FCR3, clone FCR-3, n = 2, read-out: Pyrimethamine IC50
  IC50: 0.04 ± 0.01 µM
[8]; read-out: Pyrimethamine IC50
  IC50: 17.8 ± 13.5 µM
[11]; clone D10, n = 2, read-out: Pyrimethamine IC50
  IC50: 171 ± 24.6 µM
[12]; DD2, read-out: Pyrimethamine IC50
  IC50: 104 ± 9.79 µM
[13]; clone HB3, n = 2, read-out: Pyrimethamine IC50
  IC50: 8.97 ± 2.75 µM
